# Measured values from ChEMBL document CHEMBL4152285, “Structure-based design and profiling of novel 17β-HSD14 inhibitors” (Eur J Med Chem, 2018).
# Calls of active or inactive are those of the source. The calls are words filed in the database; no cut-off is given here.
# Key:
# [1] = biological target: T1, 17-beta-hydroxysteroid dehydrogenase 14 (Homo sapiens, UniProt Q9BPX1); assay: Binding affinity to recombinant 17beta-HSD14 (unknown origin) expressed in Escherichia coli BL21 pLysS strain using E2 as substrate in presence of NAD measured continuously for 15 mins by fluorimetric method
# T1 sequence (Q9BPX1 whole entry): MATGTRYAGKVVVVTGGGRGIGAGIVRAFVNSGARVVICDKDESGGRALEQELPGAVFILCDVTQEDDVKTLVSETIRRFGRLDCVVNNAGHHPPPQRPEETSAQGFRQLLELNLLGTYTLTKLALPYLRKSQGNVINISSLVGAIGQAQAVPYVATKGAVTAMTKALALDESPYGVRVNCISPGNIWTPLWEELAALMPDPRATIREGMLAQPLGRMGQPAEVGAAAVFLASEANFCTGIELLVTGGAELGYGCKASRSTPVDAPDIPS
# [2] = biological target: T2, 17-beta-hydroxysteroid dehydrogenase type 1 (Homo sapiens) (UniProt P14061); assay: Inhibition of human placental cytosolic 17beta-HSD1 using [2,4,6,7-3H]-labeled E1/E1 as substrate and NADH at 1 uM after 10 mins by HPLC based radioflow detection method
# T2 sequence (whole entry): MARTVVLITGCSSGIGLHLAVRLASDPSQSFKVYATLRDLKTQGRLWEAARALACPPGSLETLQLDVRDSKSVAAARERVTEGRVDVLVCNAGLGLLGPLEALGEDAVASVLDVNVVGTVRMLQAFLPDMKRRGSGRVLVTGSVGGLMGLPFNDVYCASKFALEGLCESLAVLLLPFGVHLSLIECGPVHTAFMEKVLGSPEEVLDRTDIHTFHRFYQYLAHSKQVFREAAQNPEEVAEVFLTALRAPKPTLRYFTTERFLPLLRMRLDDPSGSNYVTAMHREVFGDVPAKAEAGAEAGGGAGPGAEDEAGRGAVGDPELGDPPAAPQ
# [3] = Solubility of the compound in PBS at 200 uM at pH 7.4 measured after 24 hrs; format: physicochemical
# [4] = biological target: T3, 17-beta-hydroxysteroid dehydrogenase type 2 (Homo sapiens) (UniProt P37059); assay: Inhibition of human placental cytosolic 17beta-HSD2 using [2,4,6,7-3H]-labeled E2/E2 as substrate and NADH at 1 uM after 10 mins by HPLC based radioflow detection method
# T3 sequence (whole entry): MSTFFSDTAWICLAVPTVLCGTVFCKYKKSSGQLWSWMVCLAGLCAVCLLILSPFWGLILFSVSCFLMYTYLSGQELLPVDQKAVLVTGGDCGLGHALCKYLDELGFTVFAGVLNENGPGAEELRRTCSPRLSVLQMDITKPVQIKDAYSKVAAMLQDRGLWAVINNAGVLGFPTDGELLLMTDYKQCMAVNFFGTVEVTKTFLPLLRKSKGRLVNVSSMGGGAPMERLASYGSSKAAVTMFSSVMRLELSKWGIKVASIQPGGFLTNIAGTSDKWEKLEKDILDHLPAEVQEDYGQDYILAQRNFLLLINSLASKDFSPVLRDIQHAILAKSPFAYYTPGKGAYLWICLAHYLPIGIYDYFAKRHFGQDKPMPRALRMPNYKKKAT
# [5] = Cytotoxicity against HEK293 cells assessed as cell survival at 20 uM after 72 hrs by MTT assay relative to control; format: cell-based; details: human, read-out: Survival
# [6] = biological target: T4, 3-hydroxyacyl-CoA dehydrogenase type-2 (Homo sapiens) (UniProt Q99714); assay: Inhibition of human full length N-terminal GST-tagged 17beta-HSD10 expressed in Escherichia coli BL21 DE3 Codon plus using [6,7-3H]-labeled E2/E2 as substrate and NADH at 1 uM after 30 mins by HPLC based radioflow detection method
# T4 sequence (whole entry): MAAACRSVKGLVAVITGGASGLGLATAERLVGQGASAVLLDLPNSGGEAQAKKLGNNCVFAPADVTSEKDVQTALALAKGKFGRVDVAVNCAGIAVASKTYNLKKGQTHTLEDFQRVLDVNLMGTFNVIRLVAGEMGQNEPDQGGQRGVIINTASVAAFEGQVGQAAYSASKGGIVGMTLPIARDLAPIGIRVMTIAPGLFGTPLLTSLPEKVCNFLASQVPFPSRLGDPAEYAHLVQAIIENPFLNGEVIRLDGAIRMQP
# [7] = Cytotoxicity against HEK293 cells assessed as decrease in cell viability after 72 hrs by MTT assay; format: cell-based; details: human, read-out: IG50
# Estrogen receptor = biological target: T5, Estrogen receptor (Homo sapiens, UniProt P03372); assay: Agonist activity at ERalpha (unknown origin) expressed in human U2OS cells after 24 hrs by luciferase reporter gene assay; format: cell-based
# T5 sequence (P03372 whole entry): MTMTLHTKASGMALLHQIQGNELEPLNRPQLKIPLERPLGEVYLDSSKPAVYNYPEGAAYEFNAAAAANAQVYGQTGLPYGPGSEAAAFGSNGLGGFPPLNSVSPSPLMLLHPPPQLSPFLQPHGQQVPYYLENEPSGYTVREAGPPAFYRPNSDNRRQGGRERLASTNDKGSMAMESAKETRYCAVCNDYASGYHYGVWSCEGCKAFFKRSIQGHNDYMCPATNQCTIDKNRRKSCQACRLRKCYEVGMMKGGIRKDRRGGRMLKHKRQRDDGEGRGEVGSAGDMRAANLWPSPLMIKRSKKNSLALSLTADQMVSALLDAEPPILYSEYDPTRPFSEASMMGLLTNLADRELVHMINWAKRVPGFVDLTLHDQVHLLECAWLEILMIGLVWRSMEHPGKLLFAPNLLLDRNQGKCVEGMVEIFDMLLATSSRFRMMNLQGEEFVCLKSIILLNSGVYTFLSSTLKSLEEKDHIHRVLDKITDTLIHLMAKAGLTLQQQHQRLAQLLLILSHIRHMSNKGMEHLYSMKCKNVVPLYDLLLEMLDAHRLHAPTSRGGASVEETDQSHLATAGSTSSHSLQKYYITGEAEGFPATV
# [8] = biological target: T6, 17-beta-hydroxysteroid dehydrogenase 14 (Homo sapiens) (UniProt Q9BPX1); assay: Inhibition of recombinant 17beta-HSD14 (unknown origin) expressed in Escherichia coli BL21 pLysS strain at 100 uM using E2 as substrate in presence of NAD measured continuously for 15 mins by fluorimetric method
# T6 sequence (whole entry): T1 sequence (Q9BPX1 whole entry)
# [9] = biological target: T6, 17-beta-hydroxysteroid dehydrogenase 14 (Homo sapiens); assay: Inhibition of recombinant 17beta-HSD14 (unknown origin) expressed in Escherichia coli BL21 pLysS strain at 2 uM using E2 as substrate in presence of NAD measured continuously for 15 mins by fluorimetric method
# [10] = biological target: T7, ERalpha (estrogen receptor) (Homo sapiens, UniProt P03372); assay: Agonist activity at ERalpha (unknown origin) expressed in human U2OS cells after 24 hrs by luciferase reporter gene assay relative to E2; format: cell-based; details: U2OS cells expressing ERalpha, read-out: Activity
# T7 sequence (P03372 whole entry): T5 sequence (P03372 whole entry)
smiles,measurement,setting,value
Cc1ccc2nc(C(=O)c3ccc(F)c(O)c3)ccc2c1,Ki,[1],0.006 µM
same,inhibition,[2],12%
same,"solubility at 24 h, 200 µM",[3],25 to 50 µM
same,inhibition,[4],78%
same,"viability at 72 h, 20 µM",[5],80%
same,inhibition,[6],inactive
O=C(c1ccc(F)c(O)c1)c1ccc2ccc(-c3nnn[nH]3)cc2n1,Ki,[1],0.01 µM
same,GI50 at 72 h,[7],> 100 µM
same,Activity,Estrogen receptor,Not Active
same,inhibition,[2],inactive
same,"solubility at 24 h, 200 µM",[3],50 to 100 µM
same,inhibition,[4],52%
same,"viability at 72 h, 20 µM",[5],80%
same,inhibition,[6],inactive
COc1cc(C(=O)c2ccc3ccccc3n2)ccc1F,inhibition,[8],21%
same,"solubility at 24 h, 200 µM",[3],100 to 200 µM
Oc1cc(Nc2cccc(-c3cccc(O)c3F)n2)ccc1F,Ki,[1],0.047 µM
same,inhibition,[2],57%
same,"solubility at 24 h, 200 µM",[3],> 200 µM
same,inhibition,[4],82%
same,inhibition,[6],inactive
O=C(c1ccc(F)c(O)c1)c1ccc2ccccc2n1,Ki,[1],0.012 µM
same,inhibition,[9],69%
same,inhibition,[2],6%
same,"solubility at 24 h, 200 µM",[3],> 200 µM
same,inhibition,[4],76%
same,inhibition,[6],inactive
Cc1cc(-c2ccc3ccc(C(=O)c4ccc(F)c(O)c4)nc3c2)ccc1O,Ki,[1],0.006 µM
same,inhibition,[2],11%
same,"solubility at 24 h, 200 µM",[3],13 to 25 µM
same,inhibition,[4],80%
same,inhibition,[6],inactive
Oc1cc(Oc2cccc(-c3cccc(O)c3F)n2)ccc1F,Ki,[1],0.058 µM
same,inhibition,[2],69%
same,"solubility at 24 h, 200 µM",[3],> 200 µM
same,inhibition,[4],100%
same,inhibition,[6],17%
O=C(Nc1cccc(-c2cccc(O)c2F)n1)c1ccc(F)c(O)c1,Ki,[1],0.686 µM
N#Cc1ccc2ccc(C(=O)c3ccc(F)c(O)c3)nc2c1,Ki,[1],0.009 µM
same,Activity,Estrogen receptor,Not Active
same,inhibition,[2],inactive
same,"solubility at 24 h, 200 µM",[3],25 to 50 µM
same,inhibition,[4],56%
same,"viability at 72 h, 20 µM",[5],80%
same,inhibition,[6],inactive
O=C(c1ccc(F)c(O)c1)c1ccc2ccccc2c1,Ki,[1],0.006 µM
same,inhibition,[2],64%
same,"solubility at 24 h, 200 µM",[3],25 to 50 µM
same,inhibition,[4],96%
same,inhibition,[6],inactive
Nc1ccc2ccc(C(=O)c3ccc(F)c(O)c3)nc2c1,Ki,[1],0.034 µM
same,inhibition,[2],21%
same,"solubility at 24 h, 200 µM",[3],> 200 µM
same,inhibition,[4],83%
same,inhibition,[6],inactive
CN(C(=O)c1ccc(F)c(O)c1)c1cccc(-c2cccc(O)c2F)n1,Ki,[1],2.03 µM
C=C(c1ccc(F)c(O)c1)c1cccc(-c2cccc(O)c2F)n1,Ki,[1],0.0015 µM
same,GI50 at 72 h,[7],> 100 µM
same,inhibition,[2],88%
same,"solubility at 24 h, 200 µM",[3],> 200 µM
same,inhibition,[4],100%
same,"viability at 72 h, 20 µM",[5],80%
same,inhibition,[6],inactive
O=C(Nc1ccc(F)c(O)c1)c1cccc(-c2cccc(O)c2F)n1,Ki,[1],0.336 µM
O=C(c1ccc(F)c(O)c1)c1cccc(-c2cccc(O)c2F)n1,GI50 at 72 h,[7],> 100 µM
same,inhibition,[2],8%
same,"solubility at 24 h, 200 µM",[3],> 200 µM
same,inhibition,[4],56%
same,"viability at 72 h, 20 µM",[5],80%
same,Emax at 24 h,[10],13%
same,inhibition,[6],inactive
O=C(c1ccc(F)c(O)c1)c1ccc2cc(O)ccc2n1,Ki,[1],0.119 µM
same,GI50 at 72 h,[7],> 100 µM
same,inhibition,[2],20%
same,"solubility at 24 h, 200 µM",[3],> 200 µM
same,inhibition,[4],71%
same,"viability at 72 h, 20 µM",[5],80%
same,inhibition,[6],inactive
CN(c1ccc(F)c(O)c1)c1cccc(-c2cccc(O)c2F)n1,Ki,[1],0.042 µM
same,inhibition,[2],99%
same,"solubility at 24 h, 200 µM",[3],> 200 µM
same,inhibition,[4],100%
same,inhibition,[6],19%
